Test results: ChEMBL document CHEMBL5120927, “LEGO-Lipophosphonoxins: A Novel Approach in Designing Membrane Targeting Antimicrobials” (J Med Chem, 2022)
Converted amounts (≈) assume the structure as drawn. The source made the active and inactive calls. The calls are words filed in the database; no cut-off is given here.

What was measured:
Staphylococcus aureus [1] = assay: Antibacterial activity against wild type Staphylococcus aureus 4788/B assessed as reduction in microbial growth incubated for 24 hrs by microdilution assay; assay type: functional
Staphylococcus aureus [2] = assay: Antibacterial activity against […] Staphylococcus aureus 4460/A assessed as reduction in microbial growth incubated for 24 hrs by microdilution assay; assay type: functional
Staphylococcus aureus [3] = assay: microbe, parasite or virus in culture; settings: 5017/C, 24 h
Description: Antibacterial activity against wild type Staphylococcus aureus 5017/C assessed as reduction in microbial growth incubated for 24 hrs by microdilution assay

Enterococcus faecalis = assay: Antibacterial activity against Enterococcus faecalis ATCC 29212 = CCM 4224 assessed as inhibition of bacterial growth incubated for 24 hrs by microdilution assay; assay type: functional
Staphylococcus aureus [4] = assay: Antibacterial activity against wild type Staphylococcus aureus 4561/A assessed as reduction in microbial growth incubated for 24 hrs by microdilution assay; assay type: functional
Staphylococcus aureus [5] = assay: Antibacterial activity against wild type Staphylococcus aureus 4557/A assessed as reduction in microbial growth incubated for 24 hrs by microdilution assay; assay type: functional
[6] = system: Staphylococcus epidermidis; assay: Antibacterial activity against Staphylococcus epidermidis CCM 7221 assessed as inhibition of bacterial growth incubated for 24 hrs by microdilution assay; assay type: functional
Staphylococcus aureus [7] = assay: microbe, parasite or virus in culture; settings: 4880/C, 24 h
Description: Antibacterial activity against wild type Staphylococcus aureus 4880/C assessed as reduction in microbial growth incubated for 24 hrs by microdilution assay

Pseudomonas aeruginosa [8] = assay: Antibacterial activity against multidrug-resistant Pseudomonas aeruginosa assessed as reduction in microbial growth incubated for 24 hrs by microdilution assay; assay type: functional
[9] = Hemolytic activity in human RBC assessed as haemoglobin release measured after 3 hr; assay type: toxicity, cell-based, Erythrocyte; settings: red blood cells (erythrocytes)
Staphylococcus aureus [10] = assay: Antibacterial activity against wild type Staphylococcus aureus 4566/A assessed as reduction in microbial growth incubated for 24 hrs by microdilution assay; assay type: functional
Staphylococcus aureus [11] = assay: Antibacterial activity against wild type Staphylococcus aureus 4679/B assessed as reduction in microbial growth incubated for 24 hrs by microdilution assay; assay type: functional
Enterococcus faecium = assay: Antibacterial activity against vancomycin resistant Enterococcus faecium 419/ANA assessed as reduction in microbial growth incubated for 24 hrs by microdilution assay; assay type: functional
Staphylococcus aureus [12] = assay: Antibacterial activity against Staphylococcus aureus ATCC 29213 = CCM 4223 assessed as inhibition of bacterial growth incubated for 24 hrs by microdilution assay; assay type: functional
Escherichia coli [13] = assay: Antibacterial activity against Escherichia coli ATCC 25922 = CCM 3954 assessed as inhibition of bacterial growth incubated for 24 hrs by microdilution assay; assay type: functional
Staphylococcus aureus [14] = assay: Antibacterial activity against wild type Staphylococcus aureus 4904/C assessed as reduction in microbial growth incubated for 24 hrs by microdilution assay; assay type: functional
Staphylococcus aureus [15] = assay: Antibacterial activity against methicillin resistant Staphylococcus aureus 4591/A assessed as reduction in microbial growth incubated for 24 hrs by microdilution assay; assay type: functional
Staphylococcus aureus [16] = assay: Antibacterial activity against wild type Staphylococcus aureus 4883/C assessed as reduction in microbial growth incubated for 24 hrs by microdilution assay; assay type: functional
Staphylococcus aureus [17] = assay: Antibacterial activity against wild type Staphylococcus aureus 4740/B assessed as reduction in microbial growth incubated for 24 hrs by microdilution assay; assay type: functional
Staphylococcus aureus [18] = assay: Antibacterial activity against wild type Staphylococcus aureus 4717/B assessed as reduction in microbial growth incubated for 24 hrs by microdilution assay; assay type: functional
Escherichia coli [19] = assay: Antibacterial activity against multidrug-resistant Escherichia coli CE5556 expressing CTX-M-15 assessed as reduction in microbial growth incubated for 24 hrs by microdilution assay; assay type: functional
Pseudomonas aeruginosa [20] = assay: Antibacterial activity against Pseudomonas aeruginosa ATCC 27853 = CCM 3955 assessed as inhibition of bacterial growth incubated for 24 hrs by microdilution assay; assay type: functional
Staphylococcus aureus [21] = assay: Antibacterial activity against wild type Staphylococcus aureus 4738/B assessed as reduction in microbial growth incubated for 24 hrs by microdilution assay; assay type: functional
Staphylococcus aureus [22] = assay: microbe, parasite or virus in culture; settings: 4862/C, 24 h
Description: Antibacterial activity against wild type Staphylococcus aureus 4862/C assessed as reduction in microbial growth incubated for 24 hrs by microdilution assay

Staphylococcus aureus [23] = assay: Antibacterial activity against wild type Staphylococcus aureus 4482/A assessed as reduction in microbial growth incubated for 24 hrs by microdilution assay; assay type: functional
Staphylococcus aureus [24] = assay: Antibacterial activity against wild type Staphylococcus aureus 4968/C assessed as reduction in microbial growth incubated for 24 hrs by microdilution assay; assay type: functional
Staphylococcus aureus [25] = assay: Antibacterial activity against wild type Staphylococcus aureus 5079/C assessed as reduction in microbial growth incubated for 24 hrs by microdilution assay; assay type: functional
[26] = Gradient chromatographic hydrophobicity index of the compound at pH 3.7 by HPLC analysis; assay type: ADME
Staphylococcus aureus [27] = assay: Antibacterial activity against wild type Staphylococcus aureus 4504/A assessed as reduction in microbial growth incubated for 24 hrs by microdilution assay; assay type: functional
Staphylococcus aureus [28] = assay: Antibacterial activity against wild type Staphylococcus aureus 4502/A assessed as reduction in microbial growth incubated for 24 hrs by microdilution assay; assay type: functional
Staphylococcus aureus [29] = assay: Antibacterial activity against wild type Staphylococcus aureus 4515/A assessed as reduction in microbial growth incubated for 24 hrs by microdilution assay; assay type: functional
Staphylococcus aureus [30] = assay: Antibacterial activity against wild type Staphylococcus aureus 77/CF assessed as reduction in microbial growth incubated for 24 hrs by microdilution assay; assay type: functional
Escherichia coli [31] = assay: Antibacterial activity against Escherichia coli ATCC 25922 = CCM 3954 assessed as inhibition of bacterial growth incubated for 24 hrs in presence of BSA by microdilution assay; assay type: functional
Staphylococcus aureus [32] = assay: Antibacterial activity against wild type Staphylococcus aureus 78/CF assessed as reduction in microbial growth incubated for 24 hrs by microdilution assay; assay type: functional
Staphylococcus aureus [33] = assay: Antibacterial activity against […] Staphylococcus aureus 4461/A assessed as reduction in microbial growth incubated for 24 hrs by microdilution assay; assay type: functional
Staphylococcus aureus [34] = assay: Antibacterial activity against […] Staphylococcus aureus 4463/A assessed as reduction in microbial growth incubated for 24 hrs by microdilution assay; assay type: functional
Staphylococcus aureus [35] = assay: Antibacterial activity against Staphylococcus aureus ATCC 29213 = CCM 4223 assessed as inhibition of bacterial growth incubated for 24 hrs in presence of BSA by microdilution assay; assay type: functional
Cell membrane [36] = assay: Induction of membrane permeabilization in Escherichia coli CCM 3954 assessed as propidium iodide influx measured after 80 mins by spectrofluorometer method; settings: dose 2.5-5 mg/L, DDE = dose-dependent effect
Cell membrane [37] = assay: Induction of plasma membrane depolarization in Escherichia coli CCM 3954 assessed as increase in fluorescence intensity at 2.5 mg/L measured after 80 seconds by DiSC3-5 dye based spectrofluorometer method; assay type: cell membranes; settings: time 80.0 sec
Lipid bilayer [38] = assay: Induction of membrane disruption of bacterial inner membrane mimic DOPE/DOPG (2:1) large unilamellar vesicles assessed as carboxyfluorescein leakage at 2.5 mg/L measured after 90 mins by spectrofluorometer analysis
Lipid bilayer [39] = assay: Induction of membrane disruption of […] membrane mimic DOPC/DOPE (2:1) large unilamellar vesicles assessed as carboxyfluorescein leakage at 2.5 mg/L measured after 90 mins by spectrofluorometer analysis
Staphylococcus aureus [40] = assay: Antibacterial activity against wild type methicillin resistant Staphylococcus aureus 4968/C assessed as reduction in microbial growth incubated for 24 hrs by microdilution assay; assay type: functional
Staphylococcus aureus [41] = assay: Antibacterial activity against wild type methicillin resistant Staphylococcus aureus 5017/C assessed as reduction in microbial growth incubated for 24 hrs by microdilution assay; assay type: functional
Staphylococcus aureus [42] = assay: Antibacterial activity against wild type methicillin resistant Staphylococcus aureus 4561/A assessed as reduction in microbial growth incubated for 24 hrs by microdilution assay; assay type: functional
Staphylococcus aureus [43] = assay: Antibacterial activity against antibiotic resistant Staphylococcus aureus 77/CF assessed as reduction in microbial growth incubated for 24 hrs by microdilution assay; assay type: functional
Staphylococcus aureus [44] = assay: Antibacterial activity against antibiotic resistant Staphylococcus aureus 4740/B assessed as reduction in microbial growth incubated for 24 hrs by microdilution assay; assay type: functional

SMILES	MIC (Staphylococcus aureus [1]) [µg/mL]	MIC (Staphylococcus aureus [2]) [µg/mL]	MIC (Enterococcus faecalis) [µg/mL]	MIC (Staphylococcus aureus [5]) [µg/mL]	MIC [6] [µg/mL]	MIC (Staphylococcus aureus [7]) [µg/mL]	MIC (Pseudomonas aeruginosa [8]) [µg/mL]	HC50 at 3 h [9] [µg/mL]	MIC (Staphylococcus aureus [10]) [µg/mL]	MIC (Staphylococcus aureus [11]) [µg/mL]	MIC (Staphylococcus aureus [14]) [µg/mL]	MIC (Staphylococcus aureus [16]) [µg/mL]	MIC (Staphylococcus aureus [18]) [µg/mL]	MIC (Staphylococcus aureus [21]) [µg/mL]	MIC (Staphylococcus aureus [22]) [µg/mL]	MIC (Staphylococcus aureus [25]) [µg/mL]	MIC (Staphylococcus aureus [27]) [µg/mL]	MIC (Staphylococcus aureus [32]) [µg/mL]	MIC (Staphylococcus aureus [33]) [µg/mL]	MIC (Staphylococcus aureus [34]) [µg/mL]	also measured
CCCCCCOP(=O)(CCN(CCCNC(=N)N)CCCNC(=N)N)OCCCCCCCCOP(=O)(CCN(CCCNC(=N)N)CCCNC(=N)N)OCCCCCC.Cl.Cl.Cl.Cl.Cl.Cl (stereo not drawn)	0.5	0.5	8	0.5	0.5	0.5	8	139	0.5	0.5	0.5	0.5	0.25	0.5	0.5	0.5	0.25	0.5	0.5	0.5	MIC (Staphylococcus aureus [3]): 0.5 µg/mL; MIC (Staphylococcus aureus [4]): 0.5 µg/mL; MIC (Enterococcus faecium): 16 µg/mL; MIC (Staphylococcus aureus [12]): 5 µg/mL; MIC (Escherichia coli [13]): 16 µg/mL; MIC (Staphylococcus aureus [15]): 5 µg/mL; MIC (Staphylococcus aureus [17]): 0.5 µg/mL; MIC (Escherichia coli [19]): 5 µg/mL; MIC (Pseudomonas aeruginosa [20]): 8 µg/mL; MIC (Staphylococcus aureus [23]): 0.5 µg/mL; MIC (Staphylococcus aureus [24]): 0.5 µg/mL; CHI [26]: 31.5; MIC (Staphylococcus aureus [28]): 0.5 µg/mL; MIC (Staphylococcus aureus [29]): 0.5 µg/mL; MIC (Staphylococcus aureus [30]): 0.5 µg/mL; MIC (Escherichia coli [31]): 2 µg/mL; MIC (Staphylococcus aureus [35]): 0.5 µg/mL
CCCCCCCCOP(=O)(CCN(CCCN)CCCN)OCCCCCCCCCCOP(=O)(CCN(CCCN)CCCN)OCCCCCCCC.Cl.Cl.Cl.Cl.Cl.Cl (stereo not drawn)	–	–	0.5	–	0.5	–	1	6.4	–	–	–	–	–	–	–	–	–	–	–	–	MIC (Enterococcus faecium): 1 µg/mL; MIC (Staphylococcus aureus [12]): 0.5 µg/mL; Activity (Cell membrane [36]): Dde; MIC (Escherichia coli [13]): 0.5 µg/mL; MIC (Staphylococcus aureus [15]): 3 µg/mL; Activity (Cell membrane [37]): Active; MIC (Escherichia coli [19]): 1 µg/mL; MIC (Pseudomonas aeruginosa [20]): 1 µg/mL; Activity (Lipid bilayer [38]): Active; CHI [26]: 40.6; MIC (Escherichia coli [31]): 0.5 µg/mL; MIC (Staphylococcus aureus [35]): 0.125 µg/mL; Activity (Lipid bilayer [39]): Active
O=C(O)c1cn(C2CC2)c2cc(N3CCNCC3)c(F)cc2c1=O [CIPROFLOXACIN]	0.063	–	–	0.25	–	0.25 (≈ 0.754 µM)	–	–	0.25	0.25	0.25	0.25	0.25	0.25	0.25 (≈ 0.754 µM)	0.25	0.25	0.25	0.25	0.25	MIC (Staphylococcus aureus [40]): > 8 µg/mL; MIC (Staphylococcus aureus [17]): 0.5 µg/mL; MIC (Staphylococcus aureus [41]): > 8 µg/mL; MIC (Staphylococcus aureus [30]): 0.5 µg/mL; MIC (Staphylococcus aureus [42]): > 8 µg/mL
CC[C@H]1OC(=O)[C@H](C)[C@@H](O[C@H]2C[C@@](C)(OC)[C@@H](O)[C@H](C)O2)[C@H](C)[C@@H](O[C@@H]2O[C@H](C)C[C@H](N(C)C)[C@H]2O)[C@](C)(O)C[C@@H](C)C(=O)[C@H](C)[C@@H](O)[C@]1(C)O [ERYTHROMYCIN]	0.125	0.25	–	0.25	–	0.25 (≈ 0.341 µM)	–	–	0.25	0.25	0.25	0.25	0.25	0.25	0.25 (≈ 0.341 µM)	0.25	0.25	0.125	0.25	0.25	MIC (Staphylococcus aureus [40]): > 16 µg/mL; MIC (Staphylococcus aureus [41]): > 16 µg/mL; MIC (Staphylococcus aureus [23]): 0.25 µg/mL; MIC (Staphylococcus aureus [43]): > 16 µg/mL; MIC (Staphylococcus aureus [44]): > 16 µg/mL; MIC (Staphylococcus aureus [28]): 0.125 µg/mL; MIC (Staphylococcus aureus [29]): 0.25 µg/mL; MIC (Staphylococcus aureus [42]): > 4 µg/mL
